Assay results published in patent US20100292205A1, “Pyrimidone Compounds As GSK-3 Inhibitors” (PFIZER INC., priority 2006, published 2010).

target: T1, Recombinant human GSK3β (Homo sapiens, UniProt P49841); assay: GSK-3β (Glycogen Synthase Kinase) cell free enzyme assay; type: biochemical; conditions: 1 μM; Examples 236-262; read-out: Percent inhibition at 1 μM
T1 construct: His-tag; made in house; host or cells: Sf9 insect cells / baculovirus
How it was run: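 Recombinant human GSK3β, expressed in SF9/baculovirus cells and His-tag purified on Ni-NTA Superflow, was preincubated with test agent for 30 minutes at room temperature. Substrate mix was then added to start the reaction in 8 mM MOPS (pH 7.0), 10 mM magnesium acetate, 0.2 mM EDTA, 1 mM DTT, 2 uM cold ATP, 0.025 uCi/well [33P]ATP (120 uL) and 1.0 uM biotinylated peptide. Reactions ran at RT for 60 min.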

T1 sequence (P49841 whole entry): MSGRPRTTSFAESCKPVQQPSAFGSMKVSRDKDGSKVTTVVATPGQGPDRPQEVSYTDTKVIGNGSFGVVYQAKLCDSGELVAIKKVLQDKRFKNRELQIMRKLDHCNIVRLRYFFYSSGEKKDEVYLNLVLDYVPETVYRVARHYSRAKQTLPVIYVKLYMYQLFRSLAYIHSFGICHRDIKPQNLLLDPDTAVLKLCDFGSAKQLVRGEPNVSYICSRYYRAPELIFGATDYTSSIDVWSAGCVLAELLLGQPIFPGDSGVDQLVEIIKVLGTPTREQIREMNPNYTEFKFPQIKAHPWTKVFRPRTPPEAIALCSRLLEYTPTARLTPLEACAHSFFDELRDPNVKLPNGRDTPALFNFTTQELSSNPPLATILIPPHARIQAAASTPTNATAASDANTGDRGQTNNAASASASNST

| inhibition at 1 µM | SMILES |
| --- | --- |
| 63% | Cn1c(NC2CCN(Cc3ccccc3)C2)nc(-c2ccncc2)cc1=O (stereo not shown) [Example 236, 2-[(1-Benzylpyrrolidin-3-yl)amino]-3-methyl-6-pyridin-4-ylpyrimidin-4(3H)-one] |
| 84% | Cn1c(NC2CCCN(Cc3ccccc3)CC2)nc(-c2ccncc2)cc1=O (stereo not shown) [Example 237, 2-[(1-Benzylazepan-4-yl)amino]-3-methyl-6-pyridin-4-ylpyrimidin-4(3H)-one] |
| 49% | CN1CCC(Nc2nc(-c3ccncc3)cc(=O)n2C)C1 (stereo not shown) [Example 240, 3-Methyl-2-[(1-methylpyrrolidin-3-yl)amino]-6-pyridin-4-ylpyrimidin-4(3H)-one] |
| 72% | CN1CCCC(Nc2nc(-c3ccncc3)cc(=O)n2C)CC1 (stereo not shown) [Example 241, 3-Methyl-2-[(1-methylazepan-4-yl)amino]-6-pyridin-4-ylpyrimidin-4(3H)-one] |
| 43% | CN1C[C@H](Nc2nc(-c3ccncc3)cc(=O)n2C)[C@@H](F)C1 [Example 242, 2-{[(3S,4S)-4-Fluoro-1-methylpyrrolidin-3-yl]amino}-3-methyl-6-pyridin-4-ylpyrimidin-4(3H)-one] |
| 60% | CN1CCCC(N(C)c2nc(-c3ccncc3)cc(=O)n2C)CC1 (stereo not shown) [Example 243, 3-Methyl-2-[methyl(1-methylazepan-4-yl)amino]-6-pyridin-4-ylpyrimidin-4(3H)-one] |
| 60% | CCN(c1nc(-c2ccncc2)cc(=O)n1C)C1CCN(C)C1 (stereo not shown) [Example 244, 2-[ethyl(1-Methylpyrrolidin-3-yl)amino]-3-methyl-6-pyridin-4-ylpyrimidin-4(3H)-one] |
| 52% | CN1CCC(N(C)c2nc(-c3ccncc3)cc(=O)n2C)C1 (stereo not shown) [Example 245, 3-Methyl-2-[methyl(1-methylpyrrolidin-3-yl)amino]-6-pyridin-4-ylpyrimidin-4(3H)-one] |
| 67% | CN1C[C@H](F)[C@H](Nc2nc(-c3ccncc3)cc(=O)n2C)C1 [Example 246, 2-{[(3R,4S)-4-Fluoro-1-methylpyrrolidin-3-yl]amino}-3-methyl-6-pyridin-4-ylpyrimidin-4(3H)-one] |
| 78% | CCN(c1nc(-c2ccncc2)cc(=O)n1C)C1CCCN(C)CC1 (stereo not shown) [Example 247, 2-[Ethyl(1-methylazepan-4-yl)amino]-3-methyl-6-pyridin-4-ylpyrimidin-4(3H)-one] |
| 33% | CN1CC(CNc2nc(-c3ccncc3)cc(=O)n2C)C1 [Example 249, 3-Methyl-2-{[(1-methylazetidin-3-yl)methyl]amino}-6-pyridin-4-ylpyrimidin-4(3H)-one] |
| 47% | Cn1c(N2CC[C@@H]3CN(Cc4ccccc4)C[C@@H]32)nc(-c2ccncc2)cc1=O [Example 251, 2-[(3a,R6,aR)-5-Benzylhexahydropyrro-lo[34-b]pyrrol-1(2H)-yl]-3-methyl-6-pyridin-4-ylpyrimidin-4(3H)-one] |
| 74% | Cn1c(NC2CCCCN(Cc3ccccc3)C2)nc(-c2ccncc2)cc1=O (stereo not shown) [Example 252, 2-[(1-Benzylazepan-3-yl)amino]-3-methyl-6-pyridin-4-ylpyrimidin-4(3H)-one] |
| 91% | Cn1c(N[C@@H]2CN(Cc3ccccc3)C[C@@H]2F)nc(-c2ccncc2)cc1=O [Example 253, 2-{[(3R,4S)-1-Benzyl-4-fluoropyrrolidin-3-yl]amino}-3-methyl-6-pyridin-4-ylpyrimidin-4(3H)-one] |
| 47% | CN(c1nc(-c2ccncc2)cc(=O)n1C)[C@H]1CC[C@H]2N(Cc3ccccc3)CC[C@@]2(C)C1 [Example 254, 2-{[(3a,S5,S7,aR)-1-Benzyl-3a-methyloctahydro-1H-indol-5-yl](methyl)amino}-3-methyl-6-pyridin-4-ylpyrimidin-4(3H)-one] |
| 76% | CN(c1nc(-c2ccncc2)cc(=O)n1C)C1CCCN(Cc2ccccc2)CC1 (stereo not shown) [Example 255, 2-[(1-Benzylazepan-4-yl)(methyl)amino]-3-methyl-6-pyridin-4-ylpyrimidin-4(3H)-one] |
| 83% | CN(c1nc(-c2ccncc2)cc(=O)n1C)C1CCN(Cc2ccccc2)C1 (stereo not shown) [Example 256, 2-[(1-Benzylpyrrolidin-3-yl)(methyl)amino]-3-methyl-6-pyridin-4-ylpyrimidin-4(3H)-one] |
| 71% | CCN(c1nc(-c2ccncc2)cc(=O)n1C)C1CCN(Cc2ccccc2)C1 (stereo not shown) [Example 257, 2-[(1-Benzylpyrrolidin-3-yl)(ethyl)amino]-3-methyl-6-pyridin-4-ylpyrimidin-4(3H)-one] |
| 43% | CN(c1nc(-c2ccncc2)cc(=O)n1C)[C@@H]1CC[C@H]2N(Cc3ccccc3)CC[C@@]2(C)C1 [Example 258, 2-{[(3a,S5,R7,aR)-1-Benzyl-3a-methyloctahydro-1H-indol-5-yl](methyl)amino}-3-methyl-6-pyridin-4-ylpyrimidin-4(3H)-one] |
| 83% | CCN(c1nc(-c2ccncc2)cc(=O)n1C)C1CCCN(Cc2ccccc2)CC1 (stereo not shown) [Example 259, 2-[(1-Benzylazepan-4-yl)(ethyl)amino]-3-methyl-6-pyridin-4-ylpyrimidin-4(3H)-one] |
| 70% | Cn1c(NCC2CCN(Cc3ccccc3)C2)nc(-c2ccncc2)cc1=O (stereo not shown) [Example 261, 2-{[(1-Benzylpyrrolidin-3-yl)methyl]amino}-3-methyl-6-pyridin-4-ylpyrimidin-4(3H)-one] |
| 48% | Cn1c(N[C@@H]2CC[C@@H](NCc3ccccc3)C2)nc(-c2ccncc2)cc1=O [Example 262, 2-{[(1R,3R)-3-(Benzylamino)cyclopen-tyl]amino}-3-methyl-6-pyridin-4-ylpyrimidin-4(3H)-one] |

| SMILES | inhibition at 1 µM |
| --- | --- |
| CN1[C@@H]2CC[C@H]1CN(c1nc(-c3ccncc3)cc(=O)n1C)C2 [Example 238, 3-Methyl-2-[(1R,5S)-8-methyl-38-diazabicyclo[3.2.1]oct-3-yl]-6-pyridin-4-ylpyrimidin-4(3H)-one] | 47% |
| CN1C[C@H]2CC[C@@H](C1)N2c1nc(-c2ccncc2)cc(=O)n1C [Example 239, 3-Methyl-2-[(1R,5S)-3-methyl-38-diazabicyclo[3.2.1]oct-8-yl]-6-pyridin-4-ylpyrimidin-4(3H)-one] | 57% |
| CCN(c1nc(-c2ccncc2)cc(=O)n1C)C1CCN(C)CC1 [Example 248, 2-[Ethyl(1-methylpiperidin-4-yl)amino]-3-methyl-6-pyridin-4-ylpyrimidin-4(3H)-one] | 39% |
| CCN(c1nc(-c2ccncc2)cc(=O)n1C)C1CCN(Cc2ccccc2)CC1 [Example 260, 2-[(1-Benzylpiperidin-4-yl)(ethyl)amino]-3′-methyl-6-pyridin-4-ylpyrimidin-4(3H)-one] | 44% |

same assay, conditions: cell free enzyme assay; Examples 222-234

| IC50 | SMILES |
| --- | --- |
| 0.005 µM | Cn1c(N[C@@H]2CCCN(C(=O)OCc3ccncc3)C2)nc(-c2ccncn2)cc1=O [Example 233, Pyridin-4-ylmethyl (3R)-3-[(1-methyl-6-oxo-1,6-dihydro-4,4′-bipyrimidin-2-yl)amino]piperidine-1-carboxylate] |
| 0.00168 µM | CN(c1nc(-c2ccncn2)cc(=O)n1C)[C@@H]1CCCN(C(=O)C2CC2)C1 [Example 234, 2-{[(3R)-1-(Cyclopropylcarbonyl)piperi-din-3-yl](methyl)amino}-1-methyl-4,4′-bipyrimidin-6(1H)-one] |

same assay, conditions: cell free enzyme assay; Examples 265-291

| IC50 | SMILES |
| --- | --- |
| 0.0524 µM | CCc1cn2nc(N3C[C@@H]4[C@H](C3)[C@H]4N(C)c3nc(-c4ccncc4F)cc(=O)n3C)ccc2n1 [Example 265, 2-{[(1R,5S,6s)-3-(2-Ethylimidazo[1,2-b]pyridazin-6-yl)-3-azabicyclo[3.1.0]hex-6-yl](methyl)amino}-6-(3-fluoropyridin-4-yl)-3-methylpyrimidin-4(3H)-one] |
| 0.0167 µM | CN(c1nc(-c2ccncc2F)cc(=O)n1C)[C@H]1[C@@H]2CN(c3nc4cc(F)ccc4n3C)C[C@@H]21 [Example 266, 2-{[(1R,5S,6s)-3-(5-Fluoro-1-methyl-1H-benzimidazol-2-yl)-3-azabicyclo[3.1.0]hex-6-yl](methyl)amino}-6-(3-fluoropyridin-4-yl)-3-methylpyrimidin-4(3H)-one] |
| 0.0142 µM | COc1ccc2oc(N3C[C@@H]4[C@H](C3)[C@H]4N(C)c3nc(-c4ccncc4F)cc(=O)n3C)nc2c1 [Example 267, 6-(3-Fluoropyridin-4-yl)-2-{[(1R,5S,6s)-3-(5-methoxy-1,3-benzoxazol-2-yl)-3-azabicyclo[3.1.0]hex-6-yl](methyl)amino}-3-methylpyrimidin-4(3H)-one] |
| 0.126 µM | CN(c1nc(-c2ccncc2F)cc(=O)n1C)[C@H]1[C@@H]2CN(c3nc(C(F)(F)F)c(C(=O)OCc4ccccc4)s3)C[C@@H]21 [Example 268, Benzyl 2-[(1R,5S,6s)-6-{[4-(3-fluoropyridin-4-yl)-1-methyl-6-oxo-1,6-dihydropyrimidin-2-yl](methyl)amino}-3-azabicyclo[3.1.0]hex-3-yl]-4-(trifluoromethyl)-1,3-thiazole-5-carboxylate] |
| 0.0188 µM | CN(c1nc(-c2ccncc2F)cc(=O)n1C)[C@H]1[C@@H]2CN(c3nc4ccc(F)cc4n3C)C[C@@H]21 [Example 269, 2-{[(1R,5S,6s)-3-(6-Fluoro-1-methyl-1H-benzimidazol-2-yl)-3-azabicyclo[3.1.0]hex-6-yl](methyl)amino}-6-(3-fluoropyridin-4-yl)-3-methylpyrimidin-4(3H)-one] |
| 0.0246 µM | CN(c1nc(-c2ccncc2F)cc(=O)n1C)[C@H]1[C@@H]2CN(c3nc4ccccc4o3)C[C@@H]21 [Example 270, 2-{[(1R,5S,6s)-3-[1,3-Benzoxazol-2-yl)-3-azabicyclo[3.1.0]hex-6-yl](methyl)amino}-6-(3-fluoropyridin-4-yl)-3-methylpyrimidin-4(3H)-one] |
